Tests used:
hERG potassium channel = hERG potassium channel (Homo sapiens, UniProt Q12809); assay: hERG screening assay (PatchXpress patch clamp, CHO cell line)
Experimental: Compounds were screened to test their activity in blocking the hERG potassium channel. The hERG channel is heterologously expressed in a CHO (Chinese Hamster Ovary) cell line. Cells are maintained with standard tissue culture procedures and stable channel expression is maintained with 500 μg/ml G418 in the culture medium. Cells are harvested for testing on the PatchXpress automated patch clamp with Accumax (Innovative Cell Technologies, San Diego, Calif.) to isolate single cells.
The following solutions are used for electrophysiological recordings. The external solution contains: 2 mM CaCl2; 2 mM MgCl2; 4 mM KCl; 150 mM NaCl; 10 mM Glucose; 10 mM HEPES (pH 7.4 with 1M NaOH, osmolarity).
hERG channels are activated when the voltage is stepped to +20 mV from the −80 mV holding potential (see FIG. 3). During a 5 second step at +20 mV, the channels activate and then largely inactivate, so the currents are relatively small. Upon returning to −50 mV from +20 mV, hERG currents transiently become much larger as inactivation is rapidly removed and then the channel closes. The first step to −50 mV for 300 ms is used as a baseline for measuring the peak amplitude during the step to −50 mV after channel activation. The peak current at −50 mV is measured both under control conditions and after addition of compound.
All compounds are prepared as 10 mM DMSO stocks in glass vials. Stock solutions are mixed by vigorous vortexing and sonication for about 2 minutes at room temperature. For testing, compounds are diluted in glass vials using an intermediate dilution step in pure DMSO and then further diluted to working concentrations in external solution. Dilutions are prepared no longer than 20 minutes before use.
After achieving the whole-cell configuration, cells are monitored for 90 seconds to assess stability and washed with external solution for 66 seconds. The voltage protocol described above is then applied to the cells every 12 seconds and throughout the whole procedure. Only cells with stable recording parameters and meeting specified health criteria are allowed to enter the compound addition procedure.
External solution containing 0.1% DMSO (vehicle) is applied to the cells first to establish the control peak current amplitude. After allowing the current to stabilize for 3 to 5 minutes, 1 μM and then 10 μM test compounds are applied. Each compound concentration is added 4 times and cells are kept in test solution until the effect of the compound reaches steady state or for a maximum of 12 minutes. […] Washout in the external solution compartment is performed until the recovery of the current reaches steady state. Data are analyzed using DataXpress, Clampfit (Molecular Devices, Inc., Sunnyvale) and Origin 7 (Originlab Corp.)

[1] = target: T1, wild-type human cardiac sodium channel, hNav1.5 (Homo sapiens, UniProt Q14524); assay: Late INa screening assay (late sodium current, PatchXpress whole cell patch clamp); assay type: cell-based; conditions: compound at 10 μM; read-out: Late INa % blk
[2] = target: T1, wild-type human cardiac sodium channel, hNav1.5; assay: Peak INa screening assay (tonic block TB and use-dependent block UDB of peak sodium current); assay type: cell-based; conditions: tonic block; compound at 10 μM; read-out: Tonic Peak INa % blk

hERG potassium channel, sequence (Q12809 whole entry): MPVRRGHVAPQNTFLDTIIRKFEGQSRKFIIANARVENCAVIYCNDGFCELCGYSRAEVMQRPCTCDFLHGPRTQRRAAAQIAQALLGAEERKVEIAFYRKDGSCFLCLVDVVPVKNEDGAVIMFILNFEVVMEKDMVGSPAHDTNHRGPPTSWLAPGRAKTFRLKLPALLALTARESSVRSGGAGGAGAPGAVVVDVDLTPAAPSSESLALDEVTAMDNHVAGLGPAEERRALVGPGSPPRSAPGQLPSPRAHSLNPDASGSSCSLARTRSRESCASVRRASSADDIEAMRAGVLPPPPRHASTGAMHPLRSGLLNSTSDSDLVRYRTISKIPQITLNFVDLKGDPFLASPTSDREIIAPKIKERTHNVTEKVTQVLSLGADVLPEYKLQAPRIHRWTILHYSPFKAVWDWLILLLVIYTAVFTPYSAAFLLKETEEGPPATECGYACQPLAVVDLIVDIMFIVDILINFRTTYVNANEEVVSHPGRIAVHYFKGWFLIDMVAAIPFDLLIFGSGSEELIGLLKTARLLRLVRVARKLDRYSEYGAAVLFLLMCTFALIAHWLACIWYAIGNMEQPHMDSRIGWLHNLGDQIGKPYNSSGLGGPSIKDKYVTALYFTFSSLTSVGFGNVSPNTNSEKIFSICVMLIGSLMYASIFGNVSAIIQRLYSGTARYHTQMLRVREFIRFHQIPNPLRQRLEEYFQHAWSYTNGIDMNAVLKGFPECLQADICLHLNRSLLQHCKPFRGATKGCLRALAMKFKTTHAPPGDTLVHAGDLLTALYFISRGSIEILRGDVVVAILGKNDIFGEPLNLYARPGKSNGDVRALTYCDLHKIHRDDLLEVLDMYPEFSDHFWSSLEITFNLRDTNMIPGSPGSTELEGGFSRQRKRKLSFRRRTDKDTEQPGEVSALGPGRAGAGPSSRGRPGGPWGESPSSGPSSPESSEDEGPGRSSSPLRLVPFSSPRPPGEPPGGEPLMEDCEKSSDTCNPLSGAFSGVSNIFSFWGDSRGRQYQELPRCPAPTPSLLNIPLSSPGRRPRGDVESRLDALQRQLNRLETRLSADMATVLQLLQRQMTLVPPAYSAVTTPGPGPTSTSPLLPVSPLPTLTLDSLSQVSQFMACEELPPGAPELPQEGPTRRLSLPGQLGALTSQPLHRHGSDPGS
T1 sequence (Q14524 whole entry): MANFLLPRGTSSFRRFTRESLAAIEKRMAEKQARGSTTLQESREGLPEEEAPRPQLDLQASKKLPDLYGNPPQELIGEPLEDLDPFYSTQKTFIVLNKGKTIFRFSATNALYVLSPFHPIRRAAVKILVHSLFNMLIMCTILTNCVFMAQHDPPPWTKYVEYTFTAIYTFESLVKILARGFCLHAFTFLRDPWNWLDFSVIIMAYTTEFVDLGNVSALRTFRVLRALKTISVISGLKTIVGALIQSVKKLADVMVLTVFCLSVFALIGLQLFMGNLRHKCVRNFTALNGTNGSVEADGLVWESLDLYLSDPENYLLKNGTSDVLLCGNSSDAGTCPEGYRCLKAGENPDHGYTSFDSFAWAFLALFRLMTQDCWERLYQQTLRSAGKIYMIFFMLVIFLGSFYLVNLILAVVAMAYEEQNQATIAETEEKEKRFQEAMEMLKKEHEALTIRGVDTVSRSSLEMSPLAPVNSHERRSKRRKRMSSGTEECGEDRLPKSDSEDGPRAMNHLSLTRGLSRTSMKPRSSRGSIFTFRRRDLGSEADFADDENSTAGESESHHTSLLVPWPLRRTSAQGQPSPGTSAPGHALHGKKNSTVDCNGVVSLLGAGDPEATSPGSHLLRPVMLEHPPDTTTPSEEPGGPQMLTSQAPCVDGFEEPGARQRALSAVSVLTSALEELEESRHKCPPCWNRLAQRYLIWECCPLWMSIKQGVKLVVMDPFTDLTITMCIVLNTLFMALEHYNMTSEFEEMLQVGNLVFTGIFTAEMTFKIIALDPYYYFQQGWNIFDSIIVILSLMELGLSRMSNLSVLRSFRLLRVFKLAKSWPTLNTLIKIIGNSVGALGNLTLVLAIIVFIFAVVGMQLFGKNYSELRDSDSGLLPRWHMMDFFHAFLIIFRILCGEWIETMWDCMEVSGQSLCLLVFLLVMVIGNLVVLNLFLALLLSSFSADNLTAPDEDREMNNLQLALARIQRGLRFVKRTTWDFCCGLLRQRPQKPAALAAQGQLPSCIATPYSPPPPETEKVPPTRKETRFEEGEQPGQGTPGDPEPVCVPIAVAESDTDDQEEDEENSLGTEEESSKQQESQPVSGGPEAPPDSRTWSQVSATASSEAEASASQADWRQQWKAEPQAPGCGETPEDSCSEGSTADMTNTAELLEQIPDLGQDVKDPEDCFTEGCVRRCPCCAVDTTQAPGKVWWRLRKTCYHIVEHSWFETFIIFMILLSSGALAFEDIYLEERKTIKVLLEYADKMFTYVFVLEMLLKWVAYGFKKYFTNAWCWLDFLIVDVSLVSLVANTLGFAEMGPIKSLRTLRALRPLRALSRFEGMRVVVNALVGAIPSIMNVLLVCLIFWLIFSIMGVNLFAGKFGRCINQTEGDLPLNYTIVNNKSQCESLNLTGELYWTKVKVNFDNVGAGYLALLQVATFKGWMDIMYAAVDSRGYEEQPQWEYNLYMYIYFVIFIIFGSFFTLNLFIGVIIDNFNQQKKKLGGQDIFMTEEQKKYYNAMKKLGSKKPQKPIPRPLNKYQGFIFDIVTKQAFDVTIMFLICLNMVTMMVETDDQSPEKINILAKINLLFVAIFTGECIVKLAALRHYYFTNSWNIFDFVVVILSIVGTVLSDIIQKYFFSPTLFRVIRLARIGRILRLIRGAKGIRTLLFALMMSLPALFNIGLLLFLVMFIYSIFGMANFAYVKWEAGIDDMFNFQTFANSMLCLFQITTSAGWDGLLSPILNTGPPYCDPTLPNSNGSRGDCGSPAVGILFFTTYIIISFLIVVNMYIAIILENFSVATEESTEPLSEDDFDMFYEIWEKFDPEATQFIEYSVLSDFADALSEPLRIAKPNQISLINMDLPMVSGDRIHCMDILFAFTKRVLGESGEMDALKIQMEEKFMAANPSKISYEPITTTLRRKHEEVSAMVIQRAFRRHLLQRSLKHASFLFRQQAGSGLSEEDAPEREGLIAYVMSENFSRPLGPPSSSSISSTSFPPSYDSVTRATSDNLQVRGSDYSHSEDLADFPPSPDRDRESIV

Compound	hERG Patch Clamp hERG % blk (hERG potassium channel; 1 μM)	hERG Patch Clamp hERG % blk (hERG potassium channel; 10 μM)	inhibition at 10 µM [1]	inhibition at 10 µM [2]
CC1=C(C(=O)OC(c2ccccc2)C2CC2)C(c2cccc3ccccc23)n2nnnc2N1 (stereo not drawn) [PT-002, cyclopropyl(phenyl)methyl 5-methyl-7-(naphthalen-1-yl)-4,7-dihydrotetrazolo[1,5-a]pyrimidine-6-carboxylate]	11.5%	28.0%	53.1%	2.4%
CCOC(=O)C1=C(C)NC(C)=C(C(=O)OCC)C1c1cc2ccccc2s1 [PT-114, diethyl 4-(benzo[b]thiophen-2-yl)-2,6-dimethyl-1,4-dihydropyridine-3,5-dicarboxylate]	20.9%	51.5%	85%	13.1%
CCOC(=O)C1=C(C)Nc2nnnn2C1c1cccc(Oc2ccccc2)c1 (stereo not drawn) [PT-464, ethyl 5-methyl-7-(3-phenoxyphenyl)-4,7-dihydrotetrazolo[1,5-a]pyrimidine-6-carboxylate]	11.0%	55.0%	55.8%	2.7%

From patent US20090012103A1, “SUBSTITUTED HETEROCYCLIC COMPOUNDS” (priority 2007, published 2009)
